The assay addresses T1, wild-type human ALK (cytoplasmic domain, amino acids 1058-1620, N-terminal GST fusion) (Homo sapiens, UniProt Q9UM73).
T1 construct: The cytoplasmic domain (amino acids 1058-1620) of wild-type human ALK; GST (N); made in house; host or cells: SF9 insect cells
Put plainly: ALK Inhibition in Enzyme Assay (Lance TR-FRET kinase assay). Format: biochemical. The essentials:
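Purified enzyme phosphorylated a biotinylated peptide substrate for 90 minutes at room temperature. Reactions were stopped with 20 mM EDTA in 50 mM Tris (pH 7.5), 100 mM NaCl, 0.05% BSA, 0.1% Tween-20. Phosphopeptide was detected by TR-FRET with SA-APC and Eu-W1024 anti-phosphotyrosine antibody PT66, excitation 320 nm.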
T1 sequence (Q9UM73 1058-1620): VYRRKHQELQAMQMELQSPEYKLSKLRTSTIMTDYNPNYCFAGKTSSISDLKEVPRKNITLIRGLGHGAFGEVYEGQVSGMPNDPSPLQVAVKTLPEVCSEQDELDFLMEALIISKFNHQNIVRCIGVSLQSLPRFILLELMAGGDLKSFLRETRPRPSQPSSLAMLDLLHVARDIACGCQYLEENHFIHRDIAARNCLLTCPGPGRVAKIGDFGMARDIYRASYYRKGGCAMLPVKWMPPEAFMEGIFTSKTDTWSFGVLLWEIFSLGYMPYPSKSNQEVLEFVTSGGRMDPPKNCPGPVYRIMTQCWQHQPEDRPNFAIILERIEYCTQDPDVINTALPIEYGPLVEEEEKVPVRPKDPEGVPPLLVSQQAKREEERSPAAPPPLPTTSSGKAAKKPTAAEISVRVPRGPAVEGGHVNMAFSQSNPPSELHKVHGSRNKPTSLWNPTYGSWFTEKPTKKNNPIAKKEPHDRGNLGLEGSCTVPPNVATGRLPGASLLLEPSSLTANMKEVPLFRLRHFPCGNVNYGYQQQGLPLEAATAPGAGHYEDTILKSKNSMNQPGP
What is called IC50 is the concentration needed to halve the response being measured. A lower IC50 goes with greater potency. `CC(C)(O)C1CCN(CCOc2cc3c(cn2)[nH]/c(=N\C(=O)c2cccc(F)c2)n3[C@H]2CC[C@@H](C(=O)N3CC(O)C3)CC2)CC1` [Example 81, (E)-3-Fluoro-N-(1-(cis-4-(3-hydroxyazetidine-1-carbonyl)cyclohexyl)-6-(2-(4-(2-hydroxypropan-2-yl)piperidin-1-yl)ethoxy)-1H-imidazo[4,5-c]pyridin-2(3H)-ylidene)benzamide] gave an IC50 of 100 to 1000 nM.

In turn, `COC(=O)[C@H]1CC[C@@H](n2/c(=N/C(=O)c3ccc(F)cc3)[nH]c3ccc(CN4CCOCC4)cc32)CC1` [Example 85, cis-Methyl 4-((E)-2-(4-fluorobenzoylimino)-6-(morpholinomethyl)-2,3-dihydro-1H-benzo[d]imidazol-1-yl)cyclohexanecarboxylate] gave a half-maximal inhibitory concentration (IC50) below 50 nM.

`CC(C)NC(=O)[C@H]1CC[C@@H](n2c(N)nc3cnc(OCCN4CCCCC4)cc32)CC1` [Example 86, cis-4-(2-Amino-6-(2-(piperidin-1-yl)ethoxy)-1H-imidazo[4,5-c]pyridin-1-yl)-N-isopropylcyclohexanecarboxamide]: the IC50 lay in the range of 5000 to 10000 nM.

With `CC(C)NC(=O)[C@H]1CC[C@@H](n2/c(=N/C(=O)c3ccc4ccsc4c3)[nH]c3cnc(OCCN4CCCCC4)cc32)CC1` [Example 87, (E)-N-(1-(cis-4-(Isopropylcarbamoyl)cyclohexyl)-6-(2-(piperidin-1-yl)ethoxy)-1H-imidazo[4,5-c]pyridin-2(3H)-ylidene)benzo[b]thiophene-6-carboxamide], the IC50 lay within 50 to 100 nM.

For `CC(C)NC(=O)[C@H]1CC[C@@H](n2/c(=N/C(=O)c3cncs3)[nH]c3cnc(OCCN4CCCCC4)cc32)CC1` [Example 88, (E)-N-(1-(cis-4-(Isopropylcarbamoyl)cyclohexyl)-6-(2-(piperidin-1-yl)ethoxy)-1H-imidazo[4,5-c]pyridin-2(3H)-ylidene)thiazole-5-carboxamide], the IC50 was in the range of 50 to 100 nM.

For `CC(C)NC(=O)[C@H]1CC[C@@H](n2/c(=N/C(=O)c3ccc(C#N)cc3)[nH]c3cnc(OCCN4CCCCC4)cc32)CC1` [Example 89, (E)-4-Cyano-N-(1-(cis-4-(isopropylcarbamoyl)cyclohexyl)-6-(2-(piperidin-1-yl)ethoxy)-1H-imidazo[4,5-c]pyridin-2(3H)-ylidene)benzamide], the IC50 was below 50 nM.

In turn, `CC(C)NC(=O)[C@H]1CC[C@@H](n2/c(=N/C(=O)c3ccncc3)[nH]c3cnc(OCCN4CCCCC4)cc32)CC1` [Example 90, (E)-N-(1-(cis-4-(Isopropylcarbamoyl)cyclohexyl)-6-(2-(piperidin-1-yl)ethoxy)-1H-imidazo[4,5-c]pyridin-2(3H)-ylidene)isonicotinamide] gave an IC50 below 50 nM.

`CC(C)NC(=O)[C@H]1CC[C@@H](n2/c(=N/C(=O)c3cccc(C#N)c3)[nH]c3cnc(OCCN4CCCCC4)cc32)CC1` [Example 91, (E)-3-Cyano-N-(1-(cis-4-(isopropylcarbamoyl)cyclohexyl)-6-(2-(piperidin-1-yl)ethoxy)-1H-imidazo[4,5-c]pyridin-2(3H)-ylidene)benzamide]: the 50% inhibitory concentration (IC50) is below 50 nM.

The compound `CC(C)NC(=O)[C@H]1CC[C@@H](n2/c(=N/C(=O)c3cccc(C(F)(F)F)c3)[nH]c3cnc(OCCN4CCCCC4)cc32)CC1` [Example 92, (E)-N-(1-(cis-4-(Isopropylcarbamoyl)cyclohexyl)-6-(2-(piperidin-1-yl)ethoxy)-1H-imidazo[4,5-c]pyridin-2(3H)-ylidene)-3-(trifluoromethyl)benzamide] displayed an IC50 below 50 nM.

Regarding `CC(C)NC(=O)[C@H]1CC[C@@H](n2/c(=N/C(=O)c3cccc(S(C)(=O)=O)c3)[nH]c3cnc(OCCN4CCCCC4)cc32)CC1` [Example 93, (E)-N-(1-(cis-4-(Isopropylcarbamoyl)cyclohexyl)-6-(2-(piperidin-1-yl)ethoxy)-1H-imidazo[4,5-c]pyridin-2(3H)-ylidene)-3-(methylsulfonyl)benzamide], the IC50 lay in the range of 1000 to 5000 nM.

Compound `CC(C)NC(=O)[C@H]1CC[C@@H](n2/c(=N/C(=O)c3ccc(F)cc3F)[nH]c3cnc(OCCN4CCCCC4)cc32)CC1` [Example 94, (E)-2,4-Difluoro-N-(1-(cis-4-(isopropylcarbamoyl)cyclohexyl)-6-(2-(piperidin-1-yl)ethoxy)-1H-imidazo[4,5-c]pyridin-2(3H)-ylidene)benzamide] registered an IC50 of 50 to 100 nM.

`CC(C)NC(=O)[C@H]1CC[C@@H](n2/c(=N/C(=O)c3ccc(Br)cc3)[nH]c3cnc(OCCN4CCCCC4)cc32)CC1` [Example 95, (E)-4-Bromo-N-(1-(cis-4-(isopropylcarbamoyl)cyclohexyl)-6-(2-(piperidin-1-yl)ethoxy)-1H-imidazo[4,5-c]pyridin-2(3H)-ylidene)benzamide] displayed an IC50 below 50 nM.

With `CC(C)NC(=O)[C@H]1CC[C@@H](n2/c(=N/C(=O)c3cccnc3)[nH]c3cnc(OCCN4CCCCC4)cc32)CC1` [Example 96, (E)-N-(1-(cis-4-(Isopropylcarbamoyl)cyclohexyl)-6-(2-(piperidin-1-yl)ethoxy)-1H-imidazo[4,5-c]pyridin-2(3H)-ylidene)nicotinamide], the IC50 was below 50 nM.

The compound `CC(C)NC(=O)[C@H]1CC[C@@H](n2/c(=N/C(=O)c3ccnnc3)[nH]c3cnc(OCCN4CCCCC4)cc32)CC1` [Example 97, (E)-N-(1-(cis-4-(Isopropylcarbamoyl)cyclohexyl)-6-(2-(piperidin-1-yl)ethoxy)-1H-imidazo[4,5-c]pyridin-2(3H)-ylidene)pyridazine-4-carboxamide] gave an IC50 of 50 to 100 nM.

`CC(C)NC(=O)[C@H]1CC[C@@H](n2/c(=N/C(=O)c3cc(F)cc(F)c3)[nH]c3cnc(OCCN4CCCCC4)cc32)CC1` [Example 98, (E)-3,5-Difluoro-N-(1-(cis-4-(isopropylcarbamoyl)cyclohexyl)-6-(2-(piperidin-1-yl)ethoxy)-1H-imidazo[4,5-c]pyridin-2(3H)-ylidene)benzamide] displayed an IC50 below 50 nM.

For `C=CCNS(=O)(=O)c1cccc(C(=O)/N=c2\[nH]c3cnc(OCCN4CCCCC4)cc3n2[C@H]2CC[C@@H](C(=O)NC(C)C)CC2)c1` [Example 99, (E)-3-(N-Allylsulfamoyl)-N-(1-(cis-4-(isopropylcarbamoyl)cyclohexyl)-6-(2-(piperidin-1-yl)ethoxy)-1H-imidazo[4,5-c]pyridin-2(3H)-ylidene)benzamide], the IC50 lay within 100 to 1000 nM.

Regarding `COc1ccc(C(=O)/N=c2\[nH]c3cnc(OCCN4CCCCC4)cc3n2[C@H]2CC[C@@H](C(=O)NC(C)C)CC2)cc1` [Example 100, (E)-N-(1-(cis-4-(Isopropylcarbamoyl)cyclohexyl)-6-(2-(piperidin-1-yl)ethoxy)-1H-imidazo[4,5-c]pyridin-2(3H)-ylidene)-4-methoxybenzamide], the concentration for half-maximal inhibition (IC50) is 50 to 100 nM.

Take `CC(C)NC(=O)[C@H]1CC[C@@H](n2/c(=N/C(=O)c3ccc(F)c(Cl)c3)[nH]c3cnc(OCCN4CCCCC4)cc32)CC1` [Example 101, (E)-3-Chloro-4-fluoro-N-(1-(cis-4-(isopropylcarbamoyl)cyclohexyl)-6-(2-(piperidin-1-yl)ethoxy)-1H-imidazo[4,5-c]pyridin-2(3H)-ylidene)benzamide]: the IC50 was below 50 nM.

Turning to `CC(C)NC(=O)[C@H]1CC[C@@H](n2/c(=N/C(=O)c3ccc(C(F)(F)F)cc3)[nH]c3cnc(OCCN4CCCCC4)cc32)CC1` [Example 102, (E)-N-(1-(cis-4-(Isopropylcarbamoyl)cyclohexyl)-6-(2-(piperidin-1-yl)ethoxy)-1H-imidazo[4,5-c]pyridin-2(3H)-ylidene)-4-(trifluoromethyl)benzamide], the IC50 fell in the range of 100 to 1000 nM.

For `CC(C)NC(=O)[C@H]1CC[C@@H](n2/c(=N/C(=O)c3ccc(C#N)c(F)c3)[nH]c3cnc(OCCN4CCCCC4)cc32)CC1` [Example 103, (E)-4-Cyano-3-fluoro-N-(1-(cis-4-(isopropylcarbamoyl)cyclohexyl)-6-(2-(piperidin-1-yl)ethoxy)-1H-imidazo[4,5-c]pyridin-2(3H)-ylidene)benzamide], the IC50 was below 50 nM.

As for `CC(C)NC(=O)[C@H]1CC[C@@H](n2/c(=N/C(=O)c3ccc4cc[nH]c4c3)[nH]c3cnc(OCCN4CCCCC4)cc32)CC1` [Example 104, (E)-N-(1-(cis-4-(Isopropylcarbamoyl)cyclohexyl)-6-(2-(piperidin-1-yl)ethoxy)-1H-imidazo[4,5-c]pyridin-2(3H)-ylidene)-1H-indole-6-carboxamide], the IC50 is 100 to 1000 nM.

`CNc1ccc(C(=O)/N=c2\[nH]c3cnc(OCCN4CCCCC4)cc3n2[C@H]2CC[C@@H](C(=O)NC(C)C)CC2)cc1` [Example 105, (E)-N-(1-(cis-4-(Isopropylcarbamoyl)cyclohexyl)-6-(2-(piperidin-1-yl)ethoxy)-1H-imidazo[4,5-c]pyridin-2(3H)-ylidene)-4-(methylamino)benzamide] showed an IC50 of 1000 to 5000 nM.

In turn, `CC(C)NC(=O)[C@H]1CC[C@@H](n2/c(=N/C(=O)c3ccnc(F)c3)[nH]c3cnc(OCCN4CCCCC4)cc32)CC1` [Example 106, (E)-2-Fluoro-N-(1-(cis-4-(isopropylcarbamoyl)cyclohexyl)-6-(2-(piperidin-1-yl)ethoxy)-1H-imidazo[4,5-c]pyridin-2(3H)-ylidene)isonicotinamide] registered an IC50 below 50 nM.

On to `CC(C)NC(=O)[C@H]1CC[C@@H](n2/c(=N/C(=O)c3ccc(F)c(F)c3)[nH]c3cnc(OCCN4CCCCC4)cc32)CC1` [Example 107, (E)-3,4-Difluoro-N-(1-(cis-4-(isopropylcarbamoyl)cyclohexyl)-6-(2-(piperidin-1-yl)ethoxy)-1H-imidazo[4,5-c]pyridin-2(3H)-ylidene)benzamide], for which the IC50 was below 50 nM.

As for `CC(C)NC(=O)[C@H]1CC[C@@H](n2/c(=N/C(=O)c3cccc(F)c3)[nH]c3cnc(OCCN4CCCCC4)cc32)CC1` [Example 108, (E)-3-Fluoro-N-(1-(cis-4-(isopropylcarbamoyl)cyclohexyl)-6-(2-(piperidin-1-yl)ethoxy)-1H-imidazo[4,5-c]pyridin-2(3H)-ylidene)benzamide], the IC50 is below 50 nM.

For the origin of these results see patent publication US9115127B2 (AMGEN INC., priority 2010, dated 2015).
